Values joined by “and” are separate entries in the source; they are usually repeats but may differ in a detail not shown here. Equal values may be shown once. Read-outs that look alike come from different tables or passages of the source.
Tests used:
[1] = Total radioactivity PK in plasma; format: in vivo, human
Description: Venous blood samples (18 mL/time point) were collected by either direct venipuncture or from an indwelling cannula inserted into a vein of the forearm into tubes containing potassium ethylene diamine tetra acetic acid (K2‐EDTA) at the following times for metabolite characterization, total radioactivity and parent drug analysis: Pre‐dose, 0.5, 1, 1.5, 2, 3, 4, 6, 8, 12, 24, 48, 72, 96, 120 and 144 h post‐dose. Urine samples were collected into pre‐weighed, uniquely labeled containers pre‐dose (before drug administration) and at the following intervals: 0–4, 4–8, 8–24, 24–48, 48–72, 72–96, 96–120 and 120–144 h post‐dose. Feces samples were collected quantitatively into uniquely labeled, polypropylene containers pre‐dose (before drug administration) and individually until 144 h post‐dose. Urine and feces samples were frozen at −20°C and blood samples at −70°C.
Analysis of total radioactivity data in plasma, blood, feces, and urine was performed by Covance Laboratories Inc. All sample combustions were performed in a Model 307 Sample Oxidizer (Packard Instrument Company) and the resulting ^14CO2 was trapped in a mixture of Perma Fluor™ (Perkin Elmer) and Carbo Sorb® (Perkin Elmer). Oxidation efficiency was evaluated on each day of sample combustion by analyzing a commercial radiolabeled standard both directly in a scintillation cocktail and by oxidation. […] EcoLite™(+) scintillation cocktail was used for samples analyzed directly. All samples were analyzed for radioactivity in Model 2900TR or 2910TR liquid scintillation counters (Packard Instrument Company) for at least 5 min or 100 000 counts. Each sample was homogenized or mixed before radioanalysis (unless the entire sample was used for analysis). All samples were analyzed in duplicate or triplicate, as applicable, if sample size allowed. If results from sample replicates (calculated as ^14C disintegrations per minute (dpm)/g sample) differed by more than 10% from the mean value and sample aliquots had radioactivity greater than 200 dpm, the sample was re‐homogenized or remixed and reanalyzed (if the sample size permitted).
Blood samples were mixed and duplicate aliquots of each (approximately 0.4 g) were combusted and analyzed by liquid scintillation […]. Plasma and urine samples were separately mixed and duplicate weighed aliquots of each (approximately 0.4 g for plasma and 0.2 g for urine) were analyzed directly by LSC. Urine volumes provided by the Covance clinical research unit were entered as a weight assuming a specific gravity of 1 g/mL. Feces samples were analyzed individually (samples were not combined by interval) and the weight of each individual sample was recorded. A weighed amount of methanol:water (20:80, v:v; approximately 2 to 3 times the sample weight, such that the homogenate weight:sample weight ratio was approximately 3 to 4) was added and the sample was mixed and homogenized using a probe type homogenizer. Triplicate‐weighed aliquots (approximately 0.2 g) were combusted and analyzed by LSC. The empty treatment vial from each subject was analyzed by adding a weighed amount of methanol to each vial and analyzing duplicate weighed aliquots (approximately 0.5 g) of each extract by LSC. Residual radioactivity recovered from each treatment vial was subtracted from the dose administered to the appropriate subject.
The total radioactivity in blood and plasma was determined by LSC. Nominal sampling time points were used for deriving total radioactivity blood and plasma PK data. […]

[2] = Plasma PK of non-radiolabeled encorafenib; format: in vivo, human; conditions: for Vd/F: read-out: Vz/F
CYP2D6 = test system: CYP2D6; parameters: method as in earlier work; conditions: cited from earlier work
[3] = Stability in simulated gastric and intestinal fluid; format: in vitro ADME; conditions: 37°C, relative to time = 0 h
Description: Simulated gastric fluid (SGF) was generated by mixing 2.0 g of sodium chloride and 3.2 g of purified pepsin, which is derived from porcine stomach mucosa, with an activity of 800 to 2500 units per mg of protein, in 7.0 mL of hydrochloric acid and sufficient water to make 1000 mL. The final test solution has a pH of about 1.2. Simulated intestinal fluid (SIF) was generated by dissolving 6.8 g of monobasic potassium phosphate in 250 mL of water and adding 77 mL of 0.2 N sodium hydroxide and 500 mL of water. To this mixture, 10.0 g of pancreatin was added and the solution pH was adjusted with either 0.2 N sodium hydroxide or 0.2 N hydrochloric acid to a pH of 6.8 ± 0.1 and diluted with water to a final volume of 1000 mL. Encorafenib was dissolved in SGF (100 μM final encorafenib concentration) and incubated for 1 h or SIF (1 μM final encorafenib concentration) for 3 h. Dilutions are prepared in HPLC vials by combining 20 μL of the test compound in DMSO with 180 μL of the specified assay media. Separate dilutions are prepared for each time point per media. The media is mixed by repeated pipetting, vortexed and incubated at 37°C. At the specified time period and equal volume of cold ACN is added to the vial to precipitate the protein and quench any enzymatic activity. […] Stability is calculated as % remaining relative to the T = 0 peak area.

CYP2C19 = test system: CYP2C19; parameters: method as in earlier work; conditions: cited from earlier work
[4] = parameters: method as in data on file; conditions: in vitro study; ref data on file; cited from earlier work
[5] = human, plasma, oral, 100 mg, GeoMean (GeoCV%)
[6] = human, plasma, oral, 100 mg, Mean (SD)
[7] = human, plasma, oral, 100 mg, Median (Minimum–Maximum)
[8] = plasma, Median (Minimum–Maximum)

COC(=O)N[C@@H](C)CNc1nccc(-c2cn(C(C)C)nc2-c2cc(Cl)cc(NS(C)(=O)=O)c2F)n1 [encorafenib]
Cmax, total radioactivity ([1]; Mean (SD)): 2170 (107) ngEq/mL
T1/2, total radioactivity ([1]; Mean (SD)): 5.1 h and 5.1 (1.30) h
Cmax, total radioactivity ([1]; Median (Minimum–Maximum)): 2190 (2020–2330) ngEq/mL
T1/2, total radioactivity ([1]; Median (Minimum–Maximum)): 4.5 (7.1–4.3) h
Tmax, total radioactivity ([1]; Median (Minimum–Maximum)): 1.3 h
Variability of apparent oral clearance, this study ([2]; healthy subjects, 100 mg): 37%
AUC(0-t) ([2]; human, plasma, oral, 100 mg, plasma, GeoMean (GeoCV%), read-out: AUC0-24): 3680 ng·h/mL
AUC(0-t) ([2]; human, plasma, oral, 100 mg, plasma, GeoMean (GeoCV%), read-out: AUClast): 3720 ng·h/mL
AUC(0-t) ([2]; human, plasma, oral, 100 mg, plasma, Mean (SD), read-out: AUC0-24): 3850 ng·h/mL
AUC(0-t) ([2]; human, plasma, oral, 100 mg, plasma, Mean (SD), read-out: AUClast): 3910 ng·h/mL
Vd/F ([2]; human, plasma, oral, 100 mg, plasma, Mean (SD)): 235 L
AUC(0-t) ([2]; human, plasma, oral, 100 mg, plasma, Median (Minimum–Maximum), read-out: AUC0-24): 3570 ng·h/mL
AUC(0-t) ([2]; human, plasma, oral, 100 mg, plasma, Median (Minimum–Maximum), read-out: AUClast): 3600 ng·h/mL
Vd/F ([2]; human, plasma, oral, 100 mg, plasma, Median (Minimum–Maximum)): 228 L
AUC(0-inf) [2, 5]: 3750 ng·h/mL
Cmax [2, 5]: 1040 ng/mL
half-life [2, 5]: 5.88 h
Cmax [2, 6]: 1050 ng/mL
half-life [2, 6]: 6.11 h
AUC(0-inf) [2, 7]: 3610 ng·h/mL
Cmax [2, 7]: 1080 ng/mL
half-life [2, 7]: 6.32 h
Vd/F ([2]; male, human, plasma, oral, 100 mg, plasma, GeoMean (GeoCV%)): ~226 L
Tmax ([2]; male, human, plasma, oral, 100 mg, plasma, Median (Minimum–Maximum), read-out: Tmax): 0.77 h
AUC(0-inf) ([2]; male, human, plasma, po, 100 mg, Mean (SD), n=4, 100 mg oral): 3940 ng·h/mL
Vz/F ([2]; plasma, GeoMean (GeoCV%)): 226 (32.7) L
CL/F ([2]; plasma, Mean (SD)): 27.9 (9.15) L/h
CL/F [2, 8]: 28.4 (17.1–37.6) L/h
Tmax [2, 8]: 0.767 (0.500–1.00) h
Contribution of CYP2D6 to metabolism (CYP2D6): 1%
Percentage remaining in SIF with pancreatin ([3]; 3-h incubation, 1 μM, pH 6.8): approximately 97%
Percentage remaining in SGF with pepsin ([3]; 1 h incubation, 100 μM, pH about 1.2): approximately 101%
Contribution of CYP2C19 to metabolism (CYP2C19): 16%
[blood]/[plasma] in vitro [4]: 0.75 ± 0.21

— paper PMC10541456, “A phase I, single‐center, open‐label study to investigate the absorption, distribution, metabolism and excretion of encorafenib following a single oral dose of 100 mg [ ^14C] encorafenib in healthy male subjects” (Pharmacology Research & Perspectives, 2023)
